The source of these data is US20210115040A1, “OGA INHIBITOR COMPOUNDS” (Janssen Pharmaceutica NV, priority 2018, published 2021).

Series [1] has as its target T1, recombinant human Meningioma Expressed Antigen 5 (MGEA5), also referred to as O-GlcNAcase (OGA) (Homo sapiens, UniProt O60502).
T1 construct: Full length OGA enzyme was purchased at OriGene (cat #TP322411); purchased OriGene TP322411
T1 sequence (O60502 1-916): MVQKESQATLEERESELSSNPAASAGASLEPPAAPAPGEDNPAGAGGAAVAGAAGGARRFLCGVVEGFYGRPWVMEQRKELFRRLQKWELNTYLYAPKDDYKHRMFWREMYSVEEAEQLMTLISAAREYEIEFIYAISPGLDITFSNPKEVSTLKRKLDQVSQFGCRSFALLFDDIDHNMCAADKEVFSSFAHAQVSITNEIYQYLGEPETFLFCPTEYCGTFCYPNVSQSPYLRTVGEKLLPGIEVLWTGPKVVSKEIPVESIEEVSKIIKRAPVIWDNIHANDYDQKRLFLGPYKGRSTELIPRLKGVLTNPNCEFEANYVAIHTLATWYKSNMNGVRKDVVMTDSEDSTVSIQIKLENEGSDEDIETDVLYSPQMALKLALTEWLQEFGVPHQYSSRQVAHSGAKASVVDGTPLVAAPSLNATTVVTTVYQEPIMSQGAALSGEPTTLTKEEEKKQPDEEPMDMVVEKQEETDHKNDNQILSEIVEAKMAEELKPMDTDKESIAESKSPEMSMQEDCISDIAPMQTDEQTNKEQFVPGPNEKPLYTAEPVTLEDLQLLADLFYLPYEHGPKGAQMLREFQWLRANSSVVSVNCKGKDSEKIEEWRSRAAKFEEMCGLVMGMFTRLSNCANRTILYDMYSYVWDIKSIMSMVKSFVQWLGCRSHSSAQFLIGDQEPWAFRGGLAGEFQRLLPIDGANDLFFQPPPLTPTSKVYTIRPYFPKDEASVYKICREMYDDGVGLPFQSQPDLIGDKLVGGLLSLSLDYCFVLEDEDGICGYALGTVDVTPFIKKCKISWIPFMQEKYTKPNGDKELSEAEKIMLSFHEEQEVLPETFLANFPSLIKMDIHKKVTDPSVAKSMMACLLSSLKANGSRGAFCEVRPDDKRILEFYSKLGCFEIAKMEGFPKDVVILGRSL
Description: OGA biochemical assay (inhibition of FM-GlcNAc hydrolysis, fluorescence). The following applies: FM-GlcNAc substrate; for IC50: 6 h at room temperature, read-out: Enzymatic hOGA, pIC50 (converted); for Emax: read-out: Enzymatic Emax (%). In short, it runs like this: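 Full-length OGA (2 nM) pre-incubated 60 min at room temperature with compound, then FM-GlcNAc (100 uM final) hydrolysed 6 h at room temperature in 200 mM citrate/phosphate pH 7.2 with 0.005% Tween-20. Stopped with carbonate pH 11.0; fluorescein read at ex 485/em 538 nm. IC50 and Hill coefficient from curve fit between no-inhibitor and saturating-standard controls.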

For series [2], the target named is T2, OGA (Homo sapiens, UniProt O60502).
T2 construct: HEK293 cells inducible for P301L mutant human Tau (isoform 2N4R) were established at Janssen; endogenous in cells; host or cells: HEK293 cells inducible for P301L mutant human Tau (2N4R)
T2 sequence (O60502 1-916): T1 sequence (O60502 1-916)
Nature of the series: OGA cellular assay (ICC detection of O-GlcNAcylated proteins in HEK293 cells inducible for P301L mutant human Tau). The following applies: for Emax: HEK293, HEK293 cells inducible for P301L mutant human Tau; for Emax / Cellular Emax (%): maximum = Thiamet G 200 uM; for EC50 / Cellular Emax (%): HEK293 cells inducible for P301L mutant human Tau; for EC50: 6 hours incubation, read-out: Cellular hOGA, pEC50 (converted). Type of series: cell-based. An outline of the steps: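 HEK293 cells inducible for P301L Tau (2N4R), seeded in low-glucose medium, treated with compound for 6 h at 0.2% DMSO. O-GlcNAc immunostained with CTD110.6 after PFA fixation; 488 nm intensity imaged, Hoechst nuclei counted for toxicity. IC50 by non-linear regression, 200 uM Thiamet G as maximum.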

A value given as a limit tells only on which side of the number the result lay.

As to `Cc1cc(C[C@H]2CCCN(C(C)c3cnc4[nH]c(C)nc4c3)C2)cc(C)n1` (single isomer, unassigned) [Compound 6a], the melting point turned out to be 180.52 °C. For the same compound, the IC50 in series [1] is 1580 nM. Also, the Emax in series [1] (maximal effect) amounted to 89%.

As for `Cc1cc(OC[C@H]2CCCN([C@@H](C)c3ccc4sc(C)nc4n3)C2)nc(C)n1` [Compound 49a], in series [2], the Emax is -2% and the EC50 is above 1000 nM. In series [1], the IC50 was 2000 nM. Moreover, in series [1] (maximal effect), the Emax was found to be 84%.

As to `Cc1cc([C@H]2CCCN([C@H](C)c3ccc4sc(C)nc4n3)C2)cc(C)n1` (racemic) [Compound 75], in series [2], the Emax was -1% and the EC50 is above 1000 nM. Besides, in series [1], the IC50 is 2000 nM. For the same compound, the Emax in series [1] (maximal effect) came out at 86%.

On to `Cc1cc(C2CCCN(C(C)c3ccc4sc(C)nc4n3)C2)c(F)c(C)n1` (single isomer, unassigned) [Compound 78], for which, in series [2], the EC50 was 79.4 nM and the “Cellular Emax (%)” value was 80%. In addition, in series [1], the IC50 was 10 nM. The “Enzymatic Emax (%)” value in series [1] (maximal effect) stood at 93%.

For the compound `Cc1cc(O[C@@H]2CCN(C(C)c3nc4nc(C)sc4cc3F)C2)cc(C)n1` (stereo partly shown) [Compound 92], in series [2], the Emax came to 28% and the EC50 was above 1000 nM. Also, the IC50 in series [1] is 39.8 nM. Further, in series [1] (maximal effect), the Emax was 99%.

Take `COc1cc(N[C@H]2CCCN(C(C)c3ccc4sc(C)nc4n3)C2)cc(C)n1` (stereo partly shown) [Compound 83]: in series [2], the Emax came out at 78% and the EC50 was 102 nM. In series [1], the IC50 was 10 nM. In series [1] (maximal effect), the Emax stood at 96%.

Regarding `Cc1cc(C[C@H]2CCCN(Cc3cnc4nc(C)oc4c3)C2)cc(C)n1` [Compound 37], in series [2], the Emax came out at 2% and the EC50 is above 1000 nM. Besides, the IC50 in series [1] is 7940 nM. In series [1] (maximal effect), the Emax worked out at 55%.

As for `COc1cc(C2CCCN(C(C)c3ccc4oc(C)nc4n3)C2)cc(C(F)(F)F)n1` (racemic) [Compound 20], in series [2], the Emax came out at 60% and the EC50 is 631 nM. For the same compound, in series [1], the IC50 is 20 nM. For the same compound, the Emax in series [1] (maximal effect) stood at 101%.

Turning to `Cc1cc(C[C@H]2CCCN(C(C)c3ccc4cn(C)nc4n3)C2)cc(C)n1` (mixture of isomers) [Compound 12ab], in series [2], the Emax was 71% and the EC50 is 251 nM. Further, the IC50 in series [1] is 25.1 nM. For the same compound, the Emax in series [1] (maximal effect) stood at 100%.

With `Cc1cc(C[C@@H]2CCN(C(C)c3nc4nc(C)sc4cc3F)C2)cc(C)n1` (mixture of isomers) [Compound 50], the Emax in series [2] stood at 77%; in series [1] (maximal effect), 102%. In addition, the EC50 in series [2] is 200 nM. Besides, the IC50 in series [1] was 20 nM.

For `Cc1cc(OC[C@H]2CCCN(C(C)c3cc4nc(C)sc4cc3F)C2)cc(C)n1` (stereo partly shown) [Compound 98], in series [2], the Emax came out at 60% and the EC50 was 12.6 nM. Besides, the IC50 in series [1] was 2.51 nM. Besides, the Emax in series [1] (maximal effect) stood at 102%.

For the compound `Cc1cc(CN[C@H]2CCCN(C(C)c3ccc4sc(C)nc4n3)C2)cc(C)n1` (stereo partly shown) [Compound 84], in series [2], the Emax is 66% and the EC50 is 501 nM. In addition, the IC50 in series [1] is 25.1 nM. In addition, the Emax in series [1] (maximal effect) worked out at 98%.

Consider `Cc1cc(CO[C@@H]2CCCN(C(C)c3ccc4sc(C)nc4n3)C2)cc(C)n1` (stereo partly shown) [Compound 68], for which, in series [2], the Emax came to 27% and the EC50 was above 1000 nM. The IC50 in series [1] is 126 nM. Besides, the Emax in series [1] (maximal effect) is 98%.

With `Cc1cc(OC[C@H]2CCCN(C(C)c3nc4nc(C)sc4cc3F)C2)cc(C)n1` (stereo partly shown) [Compound 91], in series [2], the Emax is 66% and the EC50 was 7.94 nM. For the same compound, the IC50 in series [1] was 3.98 nM. Besides, in series [1] (maximal effect), the Emax was determined as 101%.

On to `Cc1cc(OC[C@@H]2CCN(C(C)c3ccc4sc(C)nc4n3)C2)cc(C)n1` (mixture of isomers) [Compound 47], for which, in series [2], the Emax came out at 11% and the EC50 is above 1000 nM. Moreover, in series [1], the IC50 was 398 nM. Moreover, in series [1] (maximal effect), the Emax was 99%.

In the case of `COc1cc(C2CCCN(C(C)c3ccc4oc(C)nc4n3)C2)cc(C)n1` (racemic) [Compound 18], in series [2], the Emax worked out at 76% and the EC50 was 158 nM. The IC50 in series [1] is 20 nM. Further, the Emax in series [1] (maximal effect) worked out at 100%.

Turning to `Cc1cc(C[C@@H]2CCN([C@H](C)c3cc4nc(C)sc4cc3F)C2)cc(C)n1` [Compound 59], the Emax came out at 11% in series [2] and 98% in series [1] (maximal effect). Moreover, the EC50 in series [2] is above 1000 nM. Further, the IC50 in series [1] is 200 nM.

In the case of `Cc1cc(C[C@H]2CCN(C(C)c3cnc4nc(C)oc4c3)C2)cc(C)n1` (stereo partly shown) [Compound 63], in series [2], the Emax was 77% and the EC50 is 158 nM. In addition, the IC50 in series [1] was 100 nM. The Emax in series [1] (maximal effect) is 103%.

In the case of `Cc1cc(C[C@H]2CCCN(C(C)c3cnc4oc(C)nc4c3)C2)cc(C)n1` (mixture of isomers) [Compound 30], in series [2], the Emax was 79% and the EC50 is 200 nM. For the same compound, the IC50 in series [1] is 12.6 nM. The Emax in series [1] (maximal effect) stood at 102%.

Consider `Cc1cc(C[C@@H]2CCN(C(C)c3nc4nc(C)sc4cc3F)C2)cc(C)n1` (single isomer, unassigned) [Compound 93], for which, in series [2], the EC50 was 39.8 nM and the “Cellular Emax (%)” value is given as 91%. The IC50 in series [1] is 3.16 nM. Besides, the Emax in series [1] (maximal effect) stood at 92%.
